Results published in article PMC8620715, “Biological Activity of Triazolopyrimidine Copper(II) Complexes Modulated by an Auxiliary N-N-Chelating Heterocycle Ligands” (Molecules, 2021).

Tests used:
[1] = system: P. aeruginosa 27853; test: MIC by broth microdilution; format: cell-based, Pseudomonas aeruginosa; settings: P. aeruginosa 27853, planktonic
Protocol: (§1) The antibacterial assays were carried out using two Gram-negative (Escherichia coli ATCC 25922, Pseudomonas aeruginosa ATCC 27853) and two Gram-positive (Staphylococcus aureus ATCC 25923, MRSA (meticillin-Resistant S. aureus) 388 (ATCC, American Type Culture Collection) bacteria.
(§2) The antimicrobial activity of the two complexes (1) and (2) was assessed using their minimum inhibitory concentration (MIC) by the broth microdilution method, as previously described by the Clinical and Laboratory Standard Institute (CLSI; M07-A9 document). A broth microdilution assay was performed in sterile 96-well plates using Muller-Hinton broth (Scharlau; MHB). The compounds solubilized in […] (1,000 μg/mL) were serially diluted in 90 μL MHB, in concentrations ranging between 500 and 0.97 μg/mL. Overnight cultures were used to prepare suspension in phosphate-buffered saline (pH 7.0) to match a 0.5 McFarland density. The bacterial suspensions were further diluted to 1:100 by adding 0.1 mL of bacterial suspension to 9.9 mL of MHB. A volume of 10 μL of this dilution was added to each well of columns 1–10, containing different concentrations of the tested compounds. […] Additionally, 10 μL of the diluted bacterial suspension was added in column 11 (the growth control). A volume of 100 μL MHB was added to the microtiter plates’ sterility control wells (column 12). After inoculation, the plates were incubated at 35 ± 2 °C for 18 h. Growth was measured as light absorbance (620 nm) in comparison to an uninoculated well (negative control). It was detected using a microtiter plate reader (Apollo LB 911ELISA (Berthold Technologies GmbH & Co. KG, Waltham, MA, USA)). The MIC of each compound was defined as the lowest concentration required to inhibit bacterial growth.

[2] = system: E. coli 25922; test: MIC by broth microdilution; format: cell-based, Escherichia coli; settings: E. coli 25922, planktonic
Protocol: as §1, §2

[3] = system: S. aureus 25923; test: MIC by broth microdilution; format: cell-based, Staphylococcus aureus; settings: S. aureus 25923, planktonic
Protocol: as §1, §2

[4] = system: MRSA 388; test: MIC by broth microdilution; format: cell-based, Staphylococcus aureus; settings: MRSA 388, planktonic
Protocol: as §1, §2

[5] = system: plasmid pRSII325; test: Nuclease activity assay (gel electrophoresis); format: biochemical; settings: 37 °C; for DNA cleavage in the presence of H2O2: 0.1 and 0.5 mM complex + 1 mM H2O2, 1 h; for DNA cleavage in the presence of ascorbate: 0.1 and 0.5 mM complex + 1 mM ascorbate; for DNA cleavage in the presence of ascorbate / DNA cleavage, complex alone: 1 h; for DNA cleavage, complex alone: 0.1 and 0.5 mM
Protocol: To investigate the DNA cleavage activity of the two Cu(II) complexes, plasmidial DNA was incubated with (1) and (2), both in the absence or in the presence of activating agents, such as H2O2 or ascorbate. Exposure of DNA to the Cu(II) complexes in the presence of H2O2 exploits the CuII/III redox couple, while in the presence of ascorbate, the CuI/II redox couple is exploited. The nuclease activity of copper(II) complexes (1) and (2) was tested on plasmid pRSII325, which is a 6835 bp (base pair) circular plasmid. Gel electrophoresis of purified pRSII325 identified two main bands belonging to the supercoiled (SC) plasmid, which migrates faster, and the nicked-circular (NC) plasmid, which migrates slower (Figure 12, lane 1).
The nuclease activity of the compounds was determined using plasmid […] DNA, which was a gift from Steven Haase (Addgene plasmid #35467, 6835 base pairs). The plasmid was amplified in Escherichia coli by transforming One Shot® TOP10 chemically competent E. coli (Invitrogen, Thermo Fisher Scientific). The plasmid was isolated from positive colonies using a PureLink™ HiPure Plasmid Miniprep Kit (Invitrogen, Thermo Fisher Scientific). Plasmid (200 ng/sample) was exposed to complexes (1) and (2) in the presence of 1 mM hydrogen peroxide (to exploit the Cu(II/III) redox couple) or 1 mM ascorbic acid (to exploit the Cu(I/II) redox couple). The DNA cleavage experiments were done in a 9/1 (v/v) ratio of 50 mM Tris-HCl, pH 8, and DMSO. The samples were incubated for 1 h at 37 °C before a bromophenol blue/xylene cyanol-based loading dye (Roth, Germany) was added. The samples were loaded onto a 1% (w/v) agarose gel containing 1 μg/mL EtBr in 1 × TBE (Tris–boric acid–EDTA) buffer. Electrophoresis was performed at 50 V for 60 min in 1 × TBE buffer. The images of the fluorescent ethidium bromide-stained gels were captured using a gel documentation system (Doc-Print II, VilberLourmat, France). The cleavage experiments were done three times, with similar results. One representative gel is shown.

[6] = system: λ-DNA; test: UV-visible absorption titration with λ-DNA; format: binding, bacteriophage lambda; settings: 5 µM complex, increasing DNA
Protocol: To determine if the compounds can interact with DNA, the 48,500 base-pairs genomic DNA from bacteriophage lambda (λ-DNA, Promega, MA, USA) was used. A stock solution of 10 µM λ-DNA (base-pair concentration) was prepared in 10 mMTris/HCl buffer containing 1 mM NaCl, pH 8.
To determine the DNA intercalating ability of complexes (1) and (2), we used the 48,500 base-pairs genomic DNA from the bacteriophage lambda (λ-DNA, Promega, Madison, USA). A 10 µM λ-DNA (base-pair concentration) stock solution was prepared in 10 mM Tris/HCl buffer, pH 8, containing 1 mM NaCl. The UV-visible absorption titration experiments were done using a constant complex concentration (5 µM). […] After DNA addition, the solutions were left to equilibrate for 5 min at room temperature before recording the spectra with a Jasco V-630 spectrophotometer. Stock solutions of compounds (1) and (2) were prepared in DMSO (1 mM) and diluted to 5 µM in 10 mM Tris/HCl containing 1 mM NaCl, pH 8.
The UV-Vis absorption titration experiments were done, keeping the complex concentration constant ([…]) and increasing the concentration of λ-DNA in Tris-HCl/NaCl buffer solution at room temperature until a saturation state was achieved. After DNA addition, the solutions were allowed to equilibrate for 5 min at room temperature. The UV-Vis absorption spectra were recorded with a Jasco V-630 spectrophotometer, using a 10 mm quartz cell. […]

Row | SMILES | MIC [1] [µM] | MIC [2] [µM] | MIC [3] [µM] | MIC [4] [µM] | DNA cleavage in the presence of H2O2 [5] | DNA cleavage in the presence of ascorbate [5] | DNA cleavage, complex alone [5] | change of absorption spectrum on binding to λ-DNA [6]
1 | Cc1cc(C)n2ncnc2n1.Cc1cc(C)n2ncnc2n1.Cc1cc(C)n2ncnc2n1.O.[Cu+2].[O-][Cl+3]([O-])([O-])[O-].[O-][Cl+3]([O-])([O-])[O-].c1ccc(-c2ccccn2)nc1 [Complex (1), [Cu(bpy)(dmtp)2(OH2)](ClO4)2·dmtp] | 710 | 710 | 180 | 350 | led to DNA degradation | led to DNA degradation | caused plasmid relaxation to the NC form | decrease in the absorption intensity
2 | Cc1cc(C)n2ncnc2n1.Cc1cc(C)n2ncnc2n1.Cc1cc(C)n2ncnc2n1.O.[Cu+2].[O-][Cl+3]([O-])([O-])[O-].[O-][Cl+3]([O-])([O-])[O-].c1cnc2c(c1)ccc1cccnc12 [Complex (2), [Cu(phen)(dmtp)2(OH2)](ClO4)2·dmtp] | 690 | 340 | 40 | 20 | H2O2 strongly enhancing the nuclease activity | a higher concentration of (2) was needed for full nuclease activity | caused plasmid relaxation to the NC form | decrease in the absorption intensity
